Experimental data: ChEMBL document CHEMBL1121606, “Synthesis and beta-adrenergic blocking activity of new aliphatic oxime ethers” (J Med Chem, 1980)
The source made the active and inactive calls. The rule behind the calls is not given here.

Tests used:
Type in all cases: functional, organism-based
Cavia porcellus [1] = organism: Cavia porcellus; test: The apparent pA2 value was measured for beta-2-adrenergic blocking activity on the trachea of guinea pig; Inactive at 3e-4
Cavia porcellus [2] = organism: Cavia porcellus; test: Antagonism of the isoprenaline-induced positive chronotropic effect on the atria of guinea pig at 3e-4 M/l; details: read-out: pA2 (converted)
Cavia porcellus [3] = organism: Cavia porcellus; test: Antagonism of the isoprenaline-induced positive chronotropic effect on the atria of guinea pig; Inactive at 1e-4 mol/L

Compound	pA2 (Cavia porcellus [1])	Kb (Cavia porcellus [2])	pA2 (Cavia porcellus [3])
CC(C)NCC(O)CNC(C)C	inactive	200 µM	
CC(C)(C)NCC(O)CO (stereo not drawn)			inactive
